Measurements: patent publication US8906906B2, “Viral replication inhibitors” (Katholieke Universiteit Leuven, priority 2009, dated 2014)

How the values were obtained:
[1] = target: T1, His6-tagged HIV-1 integrase / flag-LEDGF/p75 interaction (Human immunodeficiency virus type 1 group M subtype B, UniProt P04585); assay: AlphaScreen assay of LEDGF-integrase interaction inhibition; type: binding; conditions: for IC50: compounds tested from 0.1 up to 100 μM; for inhibition at 100 µM: read-out: % inhibition at 100 μM in IN-LEDGF alphascreen (values marked *)
T1 construct: His6-tagged HIV-1 integrase; made in house
Procedure: Alphascreen Assay to Measure the LEDGF-Integrase Interaction Inhibitory Activity of Compounds of the Invention
The AlphaScreen assay was performed according to the manufacturer's protocol (Perkin Elmer, Benelux). Reactions were performed in 25 μl final volume in 384-well Optiwell™ microtiter plates (Perkin Elmer). The reaction buffer contained 25 mM Tris-HCl (pH 7.4), 150 mM NaCl, 1 mM MgCl2, 0.01% (v/v) Tween-20 and 0.1% (w/v) bovine serum albumin. His6-tagged integrase (300 nM final concentration) was incubated with the compounds for 30 min at 4° C. The compounds were added at varying concentrations spanning a wide range from 0.1 up to 100 μM. Afterwards 100 nM flag-LEDGF/p75 was added and incubation was prolonged for an additional hour at 4° C. Subsequently 5 μl of Ni-chelate-coated acceptor beads and 5 μl anti-flag donor beads were added to a final concentration of 20 μg/ml of both beads. Proteins and beads were incubated for 1 h at 30° C. in order to allow association to occur. Exposure of the reaction to direct light was omitted as much as possible and the emission of light from the acceptor beads was measured in the EnVision plate reader (Perkin Elmer, Benelux) and analyzed using the EnVision manager software. IN/DNA binding was analyzed in a similar setting using His6-tagged integrase (1 μM final concentration) and an oligodeoxynucleotide mimicking the IN ELISA oligonucleotide substrate (30 nM final concentration). Counterscreens with JPO2 or PogZ, respectively, were essentially performed as described previously.
Expression and purification of recombinant proteins: His6-tagged HIV-1 integrase, 3×flag-tagged LEDGF/p75, MBP-JPO2 and MBP-PogZ were purified for AlphaScreen applications as described previously 23,25,56.

[2] = Cytotoxicity in mock-infected MT-4 cells (MTT); type: cell-based; conditions: human, read-out: CC50 in MT4-IIIB (μm)
Procedure: A rapid and automated assay procedure was used for the in vitro evaluation of anti-HIV agents. An HTLV-1 transformed T4-cell line MT-4, which was previously shown to be highly susceptible to and permissive for HIV infection, served as the target cell line. Inhibition of the HIV-induced cytopathogenic effect was used as the end point. The viability of both HIV-and mock-infected cells was assessed spectrophotometrically via in situ reduction of 3-(4,5-dimethylthiazol-2-yl)-2,5-diphenyltetrazolium bromide (MTT). The 50% cytotoxic concentration (CC50 in μg/ml) was defined as the concentration of compound that reduced the absorbance of the mock-infected control sample by 50%. The percent protection achieved by the compound in HIV-infected cells was calculated by the following formula: […]
Examples of inhibition of cell proliferation by particular compounds of formula (I) can be found by looking at the respective CC50 values in the MT-4 cell line.
Cells: MT-4 cells (Miyoshi et al., 1982) were grown and maintained in RPMI 1640 medium supplemented with 10% heat-inactivated fetal calf serum, 2 mM I-glutamine, 0.1% sodium bicarbonate, and 20 æg of gentamicin per ml.

[3] = test system: HIV (MT4-IIIB); assay: Anti-HIV activity: inhibition of HIV-induced cytopathogenic effect in MT-4 cells (MTT); type: cell-based; conditions: Human immunodeficiency virus 1, IIIB

| Structure (SMILES) | IC50 [1] [µM] | CC50 [2] [µM] | EC50 [3] [µM] | inhibition at 100 µM [1] [%] |
| --- | --- | --- | --- | --- |
| CCCC(C(=O)O)c1c(C)nc(N(C)C)nc1-c1ccccc1 (stereo not drawn) [cpd 2] | 36.7 | 164 |  |  |
| CCCC(C(=O)O)c1c(C)nc(/C=C/c2ccccc2)nc1-c1ccccc1 (stereo not drawn) [cpd 6] | 45.6 | 98.7 |  |  |
| CCCC(C(=O)O)c1c(C)nc(-c2ccc(C)cc2)nc1-c1ccc(C)cc1 (stereo not drawn) [cpd 10] | 30.9 | 110 | 35.9 |  |
| CCCC(C(=O)O)c1c(C)nc(N(C)C2CCCCC2)nc1-c1ccc(C)cc1 (stereo not drawn) [cpd 12] | 25.2 | 81.8 | 48.3 |  |
| CCCC(C(=O)O)c1c(C)nc(-c2ccccc2)nc1-c1ccc(C)cc1 (stereo not drawn) [cpd 14] | 22.1 | 120 | 23.4 |  |
| CCCC(C(=O)O)c1c(C)nc(-c2ccccc2Cl)nc1-c1ccccc1 (stereo not drawn) [cpd 16] |  | > 250 | 152 |  |
| CCCC(C(=O)O)c1c(C)nc(-c2ccccc2Cl)nc1-c1ccc(C)cc1 (stereo not drawn) [cpd 18] | 89.9 | 125 |  |  |
| CCCC(C(=O)O)c1c(C)nc(N2CCCCC2)nc1-c1ccccc1 (stereo not drawn) [cpd 20] | 12.5 | 120 | 15.9 |  |
| CCCC(C(=O)O)c1c(C)nc(N2CCCCC2)nc1-c1ccc(C)cc1 (stereo not drawn) [cpd 22] | 4.74 | 100 | 9.16 |  |
| CCCC(C(=O)O)c1c(C)nc(-c2ccccc2)nc1-c1ccccc1 (stereo not drawn) [cpd 24] |  | > 125 | 80 |  |
| CCCC(C(=O)O)c1c(C)nc(-c2ccccc2)nc1-c1cccc(O)c1 (stereo not drawn) [cpd 26] |  | > 125 | 70.9 |  |
| CCCC(C(=O)O)c1c(C)nc(N2CCCC2)nc1-c1ccc(C)cc1 (stereo not drawn) [cpd 30] | 4.61 | 143 | 16.1 |  |
| CCCC(C(=O)O)c1c(C)nc(N2CCN(C)CC2)nc1-c1ccc(C)cc1 (stereo not drawn) [cpd 32] | 53.7 | > 250 |  |  |
| CCCC(C(=O)O)c1c(C)nc(N2CC(C)CC(C)C2)nc1-c1ccc(C)cc1 (stereo not drawn) [cpd 34] | 17.5 | 57 |  |  |
| CCCC(C(=O)O)c1c(C)nc(N2CCCCCC2)nc1-c1ccc(C)cc1 (stereo not drawn) [cpd 36] | 11.2 | 58 |  |  |
| CCCC(C(=O)O)c1c(C)nc(N2CCCC(C(=O)NCC(C)C)C2)nc1-c1ccc(C)cc1 (stereo not drawn) [cpd 38] | 10.9 | 144 | 5.97 |  |
| CCCC(C(=O)O)c1c(C)nc(N2CCCC(C)C2)nc1-c1ccc(C)cc1 (stereo not drawn) [cpd 40] | 25.1 | 120 | 24.6 |  |
| CCCC(C(=O)O)c1c(C)nc(N2CCc3ccccc3C2)nc1-c1ccc(C)cc1 (stereo not drawn) [cpd 42] | 17.3 | 26 |  |  |
| CCCC(C(=O)O)c1c(C)nc(N2CCCN(Cc3ccccc3)CC2)nc1-c1ccc(C)cc1 (stereo not drawn) [cpd 44] | 11 | 7 |  |  |
| CCCC(C(=O)O)c1c(C)nc(N2CCCC(c3nc(C(C)C)no3)C2)nc1-c1ccc(C)cc1 (stereo not drawn) [cpd 46] | 80.8 | 42 |  |  |
| CCCC(C(=O)O)c1c(C)nc(N2CCCC(Oc3ccccc3)C2)nc1-c1ccc(C)cc1 (stereo not drawn) [cpd 48] | 9.49 | 25 |  |  |
| CCCC(C(=O)O)c1c(C)nc(N2CCCC(c3ccccc3)C2)nc1-c1ccc(C)cc1 (stereo not drawn) [cpd 50] | 82.2 | 28 |  |  |
| CCCC(C(=O)O)c1c(C)nc(N2CC[C@H](N(C)C)C2)nc1-c1ccc(C)cc1 (stereo partly drawn) [cpd 52] | 3.62 | 101 |  |  |
| CCCC(C(=O)O)c1c(C)nc(N2CCC(NC(=O)c3ccccc3)CC2)nc1-c1ccc(C)cc1 (stereo not drawn) [cpd 54] | 3.9 | 67 |  |  |
| CCCC(C(=O)O)c1c(C)nc(N2CCCN(CC)CC2)nc1-c1ccc(C)cc1 (stereo not drawn) [cpd 56] | 73.8 | > 250 | 101 |  |
| CCCC(C(=O)O)c1c(C)nc(N2CCc3ccccc32)nc1-c1ccc(C)cc1 (stereo not drawn) [cpd 58] | 17.9 | 38.7 | 2.91 |  |

| Structure (SMILES) | IC50 [1] [µM] | CC50 [2] [µM] | EC50 [3] [µM] | inhibition at 100 µM [1] [%] |
| --- | --- | --- | --- | --- |
| CCCC(C(=O)O)c1c(C)nc(-c2ccccc2)nc1N1CCCCC1 (stereo not drawn) [cpd 60] | 4.71 | 61 | 13.2 |  |
| CCCC(C(=O)O)c1c(C)nc(-c2ccccc2)nc1N1CCCCCC1 (stereo not drawn) [cpd 62] | 6.71 | 131 | 29.8 |  |
| CCCC(C(=O)O)c1c(C)nc(-c2ccccc2)nc1N1CCN(C)CC1 (stereo not drawn) [cpd 64] |  | > 250 | 197 |  |
| CCCC(C(=O)O)c1c(C)nc(-c2ccccc2)nc1-c1ccc(C)c(C)c1 (stereo not drawn) [cpd 66] | 28.3 | 120 |  |  |
| CCCC(C(=O)O)c1c(C)nc(-c2ccccc2)nc1-c1ccc2ccccc2c1 (stereo not drawn) [cpd 68] |  | 53 |  | 61 |
| CCCC(C(=O)O)c1c(C)nc(-c2ccccc2)nc1-c1ccc2c(ccn2C)c1 (stereo not drawn) [cpd 74] |  | 129 |  | 46 |
| CCCC(C(=O)O)c1c(C)nc(-c2ccccc2)nc1N1CCc2ccccc2C1 (stereo not drawn) [cpd 76] | 93 | 74 |  |  |
| CCCC(C(=O)O)c1c(C)nc(-c2ccccc2)nc1Oc1ccccc1 (stereo not drawn) [cpd 78] |  | 102 |  | 58 |
| CCCC(C(=O)O)c1c(C)nc(-c2ccccc2)nc1-c1ccc2c(c1)OCCN2C (stereo not drawn) [cpd 86] |  | 118 |  | 46 |
| CCCC(C(=O)O)c1c(C)nc(-c2ccccc2)nc1-c1ccc2sccc2c1 (stereo not drawn) [cpd 88] | 66.7 | 121 |  |  |
| CCCC(C(=O)O)c1c(C)nc(-c2ccccc2)nc1-c1ccc2c(c1)CCCO2 (stereo not drawn) [cpd 90] | 61.9 | 125 |  |  |
| CCCC(C(=O)O)c1c(C)nc(-c2ccccc2)nc1-c1ccc2ccn(C)c2c1 (stereo not drawn) [cpd 92] |  | 113 |  | 51 |
| CCCC(C(=O)O)c1c(C)nc(-c2ccccc2)nc1-c1ccc2[nH]c(=O)[nH]c2c1 (stereo not drawn) [cpd 100] | 70.8 | 96 |  |  |
| CCCC(C(=O)O)c1c(C)nc(-c2ccccc2)nc1-c1ccc(C(C)C)cc1 (stereo not drawn) [cpd 106] | 56.6 | 32 |  |  |
| CCCC(C(=O)O)c1c(C)nc(-c2ccccc2)nc1-c1ccc(C(F)(F)F)cc1 (stereo not drawn) [cpd 108] | 100 | 47 |  |  |
| CCCC(C(=O)O)c1c(C)nc(-c2ccccc2)nc1-c1ccc(Cl)cc1OC (stereo not drawn) [cpd 110] |  | 94 |  | 40 |
| CCCC(C(=O)O)c1c(C)nc(-c2ccccc2)nc1Cc1ccccc1 (stereo not drawn) [cpd 117] | 6.1 | > 250 |  |  |
| CCCC(C(=O)O)c1c(C)nc(-c2ccccc2)nc1-c1ccc(C)cc1OC (stereo not drawn) [cpd 120] |  | 124 |  | 48 |
| Cc1ccc(-c2nc(N3CCCCC3)nc(C)c2C(Cc2ccccc2)C(=O)O)cc1 (stereo not drawn) [cpd 126] | 27 | 67 |  |  |
| CCCC(C(=O)O)c1c(C)nc(N2CCCCC2)nc1-c1cc(F)c(F)cc1F (stereo not drawn) [cpd 142] | 50.5 | 79 |  |  |
| Cc1ccc(-c2nc(N3CCCCC3)nc(C)c2C(OC(C)(C)C)C(=O)O)cc1 (stereo not drawn) [cpd 154] |  | 118 | 1.06 |  |
| CCCC(C(=O)O)c1c(C)nc(-c2ccccc2O)nc1-c1ccc(C)cc1 (stereo not drawn) [cpd 158] |  | 119 | 17.8 |  |
| CCCC(C(=O)O)c1c(C)nc(-c2cnn(C)c2)nc1-c1ccc(C)cc1 (stereo not drawn) [cpd 162] |  | > 250 | 72.1 |  |
| CCCC(C(=O)O)c1c(C)nc(NCc2ccccc2)nc1-c1ccc(C)cc1 (stereo not drawn) [cpd 168] |  | 128 | 23.9 |  |
| CCCC(C(=O)O)c1c(C)nc(NCC(C)(C)C)nc1-c1ccc(C)cc1 (stereo not drawn) [cpd 174] |  | 155 | 25 |  |
